From US9688624B2, “DP2 antagonist and uses thereof” (Brickell Biotech, Inc., priority 2010, dated 2017)
Where a name gives a salt, the structure may show the parent alone. Read-outs that look alike come from different tables or passages of the source.

Key:
[1] = Capsule formulation pharmacokinetics in male Beagle dogs; type: in vivo; details: dog, fasted; for half-life: read-out: t1/2 24 hr (converted)
Method: In a separate study, male Beagle dogs were dosed with the capsule formulations as described herein.

[2] = Gravimetric vapour sorption (GVS); type: physicochemical; details: 25° C.
Method: Example 5: Gravimetric Vapour Sorption (GVS)
Sorption isotherms were obtained using a SMS DVS Intrinsic moisture sorption analyzer, controlled by SMS Analysis Suite software. The sample temperature was maintained at 25° C. by the instrument controls. The humidity was controlled by mixing streams of dry and wet nitrogen, with a total flow rate of 200 ml·min-1. The relative humidity was measured by a calibrated Rotronic probe (dynamic range of 1.0-100% RH), located near the sample. The weight change, (mass relaxation) of the sample as a function of % RH was constantly monitored by the microbalance (accuracy ±0.005 mg). Typically 5-20 mg of sample was placed in a tared mesh stainless steel basket under ambient conditions. The sample was loaded and unloaded at 40% RH and 25° C. (typical room conditions). A moisture sorption isotherm was performed as outlined below (2 scans giving 1 complete cycle). The standard isotherm was performed at 25° C. at 10% RH intervals over a 0.5-90% RH range

[3] = tested on: smoke-induced pulmonary inflammation; assay: Mouse smoke model of chronic obstructive pulmonary disease; type: in vivo; details: 10 and 50 mg/kg PO daily
Method: Example 21: Mouse Smoke Model of Chronic Obstructive Pulmonary Disease
A mouse model of acute cigarette smoke exposure was used to determine the effects of Compound 1 on smoke-induced pulmonary inflammation.
BALB/c mice were exposed to the smoke of 7 unfiltered cigarettes per day via whole-body exposure on days 0, 1, and 2 for a total of 1.75 hours per day. […] The plasma concentrations for Compound 1 measured at trough were 85 and 588 nM at 10 mg/kg and 50 mg/kg, respectively.

[4] = Phase I single ascending dose study in humans, pharmacokinetics; type: in vivo, human; details: for half-life / AUC(0-inf) / AUC(0-t) / Cmax / Tmax / Vd/F: human, plasma; for Vd/F: read-out: Vz/F
Text: Example 22: Phase I Study in Humans
This is a phase 1, Single-Center, Double-Blind Study of Compound 2 in healthy volunteers.
To assess: (1) the safety and tolerability of single and multiple doses of Compound 2 following oral administration; and (2) the pharmacokinetics (PK) of Compound 2 after single and multiple doses; and (3) the effects of the pharmacodynamic (PD) responses in healthy subjects to Compound 2 as measured by a PGD2-induced eosinophil shape change assay (ESC).
The Single Ascending Dose (SAD) study will include 6 cohorts with 8 subjects each, 6 receiving the active treatment and 2 receiving the placebo. The SAD study will explore doses of 5, 15, 50, 150, 300 and 500 mg/day. Compound 2 (Pattern 1) is administered as API in a Capsule, prepared on site at the clinical pharmacy (see Example 10). Safety monitoring will include: a “how do you feel” (HDYF) question, adverse events reporting, physical examinations, vital signs, ECG's, and a biological assessment (clinical chemistry, hematology and urinalysis). The decision to escalate to the next dose level will be based on the results of medical monitoring, and a blinded interim analysis of pharmacokinetic parameters (AUC, Cmax) and pharmacodynamic responses. Doses may be adjusted based on the occurrence of adverse events. Subjects will be followed on site for 72 hours after dose administration.
The plasma concentrations of Compound 1 are determined by LC-MS/MS, giving a detection limit of 0.25 ng*mL^−1.
Pharmacokinetic measurements of Compound 2 includes measurement of the protonated form (Compound 1).

[5] = male, Beagle, in vivo, po, Capsule, 5.6 mg/kg
[6] = male, Beagle, in vivo, po, EC-Capsule (L100-55), 5 mg/kg
[7] = male, Beagle, in vivo, IV saline, 2 mg/kg
[8] = single oral 5 mg capsule, healthy humans, mean
[9] = single oral 15 mg capsule, healthy humans, mean
[10] = single oral 50 mg capsule, healthy humans, mean
[11] = single oral 150 mg capsule, healthy humans, mean
[12] = single oral 300 mg capsule, healthy humans, mean
[13] = single oral 500 mg capsule, healthy humans, mean

COc1ccc(CC(=O)O)cc1Oc1ccc(NC(=O)C(C)(C)C)cc1CSC(C)(C)C [Compound 2, 2-(3-(2-((tert-butylthio)methyl)-4-(2,2-dimethyl-propionylamino)phenoxy)-4-methoxyphenyl)acetic acid, sodium salt]
CO ([1]; IV saline, 2 mg/kg): 10.3 µg/mL | ClPl ([1]; IV saline, 2 mg/kg): 5.0 mL/min/kg | AUC [1, 5]: 14300 ng·h/mL | Cmax [1, 5]: 4800 ng/mL | Tmax [1, 5]: 2.1 h | bioavailability [1, 5]: 78.6% | half-life [1, 5]: 2.8 h | AUC [1, 6]: 20900 ng·h/mL | Cmax [1, 6]: 14400 ng/mL | Tmax [1, 6]: 1 h | bioavailability [1, 6]: 128% | half-life [1, 6]: 2.4 h | AUC [1, 7]: 6500 ng·h/mL | Tmax [1, 7]: 0.1 h | Vd ([1]; male, Beagle, in vivo, IV saline, 2 mg/kg, read-out: VDss): 0.9 L/kg | half-life [1, 7]: 5.1 h | hygroscopicity (GVS observation) ([2]; listed as Amorphous Compound 2, sodium salt): deliquesced | GVS mass change ([2]; at 80% R.H.): > 30 % w/w | BALF lymphocytes [3]: trend toward reducing | decrease of BALF neutrophils compared to the untreated group [3]: approx. 50% | half-life ([4]; oral, humans, 150 and 500 mg dose, read-out: long elim. t1/2): ≤ 18 h | half-life ([4]; oral, humans, SAD study, read-out: half life, increases with dose): 1.2 to 7 h | AUC(0-inf) [4, 8]: 6.2 ng·h/mL | AUC(0-t) [4, 8]: 4.85 ng·h/mL | Cmax [4, 8]: 2.69 ng/mL | Tmax [4, 8]: 0.542 h | Vd/F [4, 8]: 1470 L | half-life ([4]; single oral 5 mg capsule, healthy humans, mean, read-out: t1/2 (converted)): 1.22 h | AUC(0-inf) [4, 9]: 17.5 ng·h/mL | AUC(0-t) [4, 9]: 17 ng·h/mL | Cmax [4, 9]: 8.31 ng/mL | Tmax [4, 9]: 0.625 h | Vd/F [4, 9]: 1760 L | half-life ([4]; single oral 15 mg capsule, healthy humans, mean, read-out: t1/2 (converted)): 1.23 h | Cmax [4, 10]: 93.4 ng/mL | Tmax [4, 10]: 1.2 h | Vd/F [4, 10]: 1500 L | half-life ([4]; single oral 50 mg capsule, healthy humans, mean, read-out: t1/2 (converted)): 1.49 h | AUC(0-inf) [4, 11]: 3460 ng·h/mL | AUC(0-t) [4, 11]: 3450 ng·h/mL | Cmax [4, 11]: 4630 ng/mL | Tmax [4, 11]: 0.542 h | Vd/F [4, 11]: 1410 L | half-life ([4]; single oral 150 mg capsule, healthy humans, mean, read-out: t1/2 (converted)): 7.86 h | AUC(0-inf) [4, 12]: 6980 ng·h/mL | AUC(0-t) [4, 12]: 6970 ng·h/mL | Cmax [4, 12]: 6690 ng/mL | Tmax [4, 12]: 0.92 h | Vd/F [4, 12]: 351 L | half-life ([4]; single oral 300 mg capsule, healthy humans, mean, read-out: t1/2 (converted)): 6.32 h | AUC(0-inf) [4, 13]: 26000 ng·h/mL | AUC(0-t) [4, 13]: 26000 ng·h/mL | Cmax [4, 13]: 25700 ng/mL | Tmax [4, 13]: 0.583 h | Vd/F [4, 13]: 501 L | half-life ([4]; single oral 500 mg capsule, healthy humans, mean, read-out: t1/2 (converted)): 14.1 h | CL/F [4, 8]: 886 L/h | λz [4, 8]: 0.598 h⁻¹ | CL/F [4, 9]: 982 L/h | λz [4, 9]: 0.574 h⁻¹ | CL/F [4, 10]: 643 L/h | λz [4, 10]: 0.485 h⁻¹ | CL/F [4, 11]: 161 L/h | λz [4, 11]: 0.130 h⁻¹ | CL/F [4, 12]: 53.4 L/h | λz [4, 12]: 0.19 h⁻¹ | CL/F [4, 13]: 21.8 L/h | λz [4, 13]: 0.0904 h⁻¹
